Where “and” joins values, the source holds several entries; their conditions need not be identical. Identical values can stand only once. Records with an inconclusive call do not appear. *1 amine or outer side, *2 acyl side, *3 side chain or, on linkers, in order; H or OH if unused. Where a SMILES comes first, the peptide text is derived from it. Bridges are numbered along the chain shown (N, C = ends). Roman numbers before positions name the chains, in order. [ ]: non-standard residue; d: D form. Actinocin(9to1) = Cc1c2oc3c(C)ccc(C(=O)[*:1])c3nc-2c(C(=O)[*:2])c(N)c1=O; aThr = C[C@H](O)[C@H](N)C(=O)O; NMeV = CN[C@H](C(=O)O)C(C)C; Sar = CNCC(=O)O
Tested on: BDF1 mice, B16 melanoma s.c., survival/tumor T/C
Experiment: NCI In Vivo Anticancer Drug Screen. Data for tumor model B16 Melanoma (subcutaneous) in B6D2F1 (BDF1) mice
Method: The antitumor activity of compounds was measured in mice bearing transplantable tumors. Survival or tumor size were measured and the results are expressed as the measurement made in the treated group (T) divided by the measurement made in the vehicle treated control group (C). The tumor model used in this assay is B16 Melanoma (subcutaneous) in B6D2F1 (BDF1) mice

O=c1[nH]c(=O)n(C2CC(O)C(CO)O2)cc1F (centres undefined)
T/C (endpoint: median survival time, dose: 25.0 mg/kg/injection, schedule: Q01DX009 (ip), vehicle: saline with Tween-80, higher = longer survival): 109 % of control | T/C (endpoint: median survival time, dose: 100.0 mg/kg/injection, schedule: Q01DX009 (ip), vehicle: saline with Tween-80, higher = longer survival): 122 % of control | T/C (endpoint: median survival time, dose: 200.0 mg/kg/injection, schedule: Q01DX009 (ip), vehicle: saline with Tween-80, higher = longer survival): 120 % of control | T/C (endpoint: median survival time, dose: 200.0 mg/kg/injection, schedule: Q04DX003 (ip), vehicle: saline, higher = longer survival): 112 % of control | T/C (endpoint: median tumor weight (est.), dose: 25.0 mg/kg/injection, schedule: Q01DX009 (ip), vehicle: saline with Tween-80, higher = larger tumour): 68 % of control | T/C (endpoint: median tumor weight (est.), dose: 50.0 mg/kg/injection, schedule: Q01DX009 (ip), vehicle: saline with Tween-80, higher = larger tumour): 59 % of control | T/C (endpoint: median tumor weight (est.), dose: 50.0 mg/kg/injection, schedule: Q01DX009 (ip), vehicle: saline, higher = larger tumour): 96 % of control and 220 % of control | T/C (endpoint: median tumor weight (est.), dose: 100.0 mg/kg/injection, schedule: Q01DX009 (ip), vehicle: saline with Tween-80, higher = larger tumour): 41 % of control | T/C (endpoint: median tumor weight (est.), dose: 100.0 mg/kg/injection, schedule: Q01DX009 (ip), vehicle: saline, higher = larger tumour): 49 % of control and 71 % of control | T/C (endpoint: median tumor weight (est.), dose: 200.0 mg/kg/injection, schedule: Q01DX009 (ip), vehicle: saline, higher = larger tumour): 55 % of control

COc1cc2c(c(OC)c1OC)-c1ccc(OC)c(=O)cc1[C@@H](NC(C)=O)CC2
T/C (endpoint: median survival time, dose: 63.0 micrograms/kg/injection, schedule: Q01DX009 (ip), vehicle: saline, higher = longer survival): 95 % of control | T/C (endpoint: median survival time, dose: 125.0 micrograms/kg/injection, schedule: Q01DX009 (ip), vehicle: saline, higher = longer survival): 116 % of control | T/C (endpoint: median survival time, dose: 250.0 micrograms/kg/injection, schedule: Q01DX009 (ip), vehicle: saline, higher = longer survival): 105 % of control | T/C (endpoint: median survival time, dose: 500.0 micrograms/kg/injection, schedule: Q01DX009 (ip), vehicle: saline, higher = longer survival): 103 % of control

NCCc1ccc(O)c(O)c1
T/C (endpoint: median survival time, dose: 100.0 mg/kg/injection, schedule: Q01DX009 (ip), vehicle: saline, higher = longer survival): 107 % of control | T/C (endpoint: median survival time, dose: 200.0 mg/kg/injection, schedule: Q01DX009 (ip), vehicle: saline, higher = longer survival): 106 % of control | T/C (endpoint: median survival time, dose: 400.0 mg/kg/injection, schedule: Q01DX009 (ip), vehicle: saline, higher = longer survival): 97 % of control | T/C (endpoint: median survival time, dose: 600.0 mg/kg/injection, schedule: Q01DX009 (ip), vehicle: saline, higher = longer survival): 110 % of control

NNC(=O)c1ccncc1
T/C (endpoint: median survival time, dose: 64.0 mg/kg/injection, schedule: Q01DX009 (ip), vehicle: saline, higher = longer survival): 116 % of control | T/C (endpoint: median survival time, dose: 128.0 mg/kg/injection, schedule: Q01DX009 (ip), vehicle: saline, higher = longer survival): 88 % of control

Nc1ncnc2c1ncn2C1OC(CO)C(O)C1O (centres undefined)
T/C (endpoint: median survival time, dose: 60.0 mg/kg/injection, schedule: Q03HX024 (ip), vehicle: saline with Tween-80, higher = longer survival): 115 % of control | T/C (endpoint: median survival time, dose: 70.0 mg/kg/injection, schedule: Q03HX024 (ip), vehicle: saline with Tween-80, higher = longer survival): 96 % of control | T/C (endpoint: median survival time, dose: 80.0 mg/kg/injection, schedule: Q03HX024 (ip), vehicle: saline with Tween-80, higher = longer survival): 105 % of control | T/C (endpoint: median survival time, dose: 160.0 mg/kg/injection, schedule: Q03HX024 (ip), vehicle: saline with Tween-80, higher = longer survival): 115 % of control | T/C (endpoint: median survival time, dose: 240.0 mg/kg/injection, schedule: Q03HX024 (ip), vehicle: saline with Tween-80, higher = longer survival): 121 % of control

Cc1c2oc3c(C)ccc(C(=O)N[C@@H]4C(=O)N[C@H](C(C)C)C(=O)N5CCC[C@H]5C(=O)N(C)CC(=O)N(C)[C@@H](C(C)C)C(=O)O[C@H]4C)c3nc-2c(C(=O)N[C@@H]2C(=O)N[C@H](C(C)C)C(=O)N3CCC[C@H]3C(=O)N(C)CC(=O)N(C)[C@@H](C(C)C)C(=O)O[C@H]2C)c(N)c1=O (I: [aThr][dV]P[Sar][NMeV] / II: [aThr][dV]P[Sar][NMeV]; ester I:1-I:C, II:1-II:C; linker I:N-II:N via Actinocin(9to1))
T/C (endpoint: median tumor weight (est.), dose: 100.0 micrograms/kg/injection, schedule: Q01DX009 (ip), vehicle: saline, higher = larger tumour): 38 % of control

O=[N+]([O-])c1nccn1CC(O)CO (centres undefined)
T/C (endpoint: median survival time, dose: 1000.0 mg/kg/injection, schedule: Q01DX001 (ip), vehicle: saline, higher = longer survival): 91 % of control | T/C (endpoint: median survival time, dose: 2500.0 mg/kg/injection, schedule: Q01DX001 (ip), vehicle: saline, higher = longer survival): 85 % of control

CCC1(O)CC2CN(CCc3c([nH]c4ccccc34)C(C(=O)OC)(c3cc4c(cc3OC)N(C)C3C(O)(C(N)=O)C(O)C5(CC)C=CCN6CCC43C65)C2)C1 (centres undefined) (tested in a mixture with another compound)
T/C (endpoint: median survival time, dose: 1.8 mg/kg/injection, schedule: Q04DX003 (ip), vehicle: water, higher = longer survival): 87 % of control
